Assay results published in US20120270237A9, “METHODS FOR THE IDENTIFICATION OF KINASE INTERACTING MOLECULES AND FOR THE PURIFICATION OF KINASE PROTEINS” (Cellzone AG, priority 2009, published 2012).

Columns and labels:
Assay in all cases: Kinobeads competition binding, HeLa Placenta lysate mix
Design in all cases: capturing and identification of kinases from mixed HeLa placenta lysates; endogenous in cells; host or cells: mixed lysate of HeLa cells and placenta tissue
Settings in all cases: 10 μM free compound
Erk2 = Erk2 (Homo sapiens, UniProt P28482)
Method: (§1) To one aliquot of cell lysate 10 μM of the free compound (FIG. 3, CZC31326) was added and allowed to bind to proteins in the lysate. Then the affinity matrix with the immobilized compound was added to capture proteins that were not interacting with the previously added free compound. Beads were separated from the lysate and bead bound proteins were eluted in SDS sample buffer and subsequently separated by SDS-Polyacrylamide gel electrophoresis (FIG. 10). Suitable gel bands were cut out and subjected to in-gel proteolytic digestion with trypsin. The second lysate aliquot was processed identically, however no free compound was added (DMSO solvent control). Peptides originating from samples 1 and 2 were labeled with iTRAQ reagents (iTRAQ 114 and iTRAQ 117) and the combined samples were analyzed with a nano-flow liquid chromatography system coupled online to a tandem mass spectrometer (LC-MS/MS) experiment followed by iTRAQ reporter ion quantification in the MS/MS spectra as described in Example 2.

MLK3 = MLK3 (Homo sapiens, UniProt Q16584)
Method: as §1

CaMK2d = CaMK2d (Homo sapiens, UniProt Q13557)
Method: as §1

GAK = target: T1, GAK (Homo sapiens, UniProt O14976)
T1 sequence (O14976 1-1311): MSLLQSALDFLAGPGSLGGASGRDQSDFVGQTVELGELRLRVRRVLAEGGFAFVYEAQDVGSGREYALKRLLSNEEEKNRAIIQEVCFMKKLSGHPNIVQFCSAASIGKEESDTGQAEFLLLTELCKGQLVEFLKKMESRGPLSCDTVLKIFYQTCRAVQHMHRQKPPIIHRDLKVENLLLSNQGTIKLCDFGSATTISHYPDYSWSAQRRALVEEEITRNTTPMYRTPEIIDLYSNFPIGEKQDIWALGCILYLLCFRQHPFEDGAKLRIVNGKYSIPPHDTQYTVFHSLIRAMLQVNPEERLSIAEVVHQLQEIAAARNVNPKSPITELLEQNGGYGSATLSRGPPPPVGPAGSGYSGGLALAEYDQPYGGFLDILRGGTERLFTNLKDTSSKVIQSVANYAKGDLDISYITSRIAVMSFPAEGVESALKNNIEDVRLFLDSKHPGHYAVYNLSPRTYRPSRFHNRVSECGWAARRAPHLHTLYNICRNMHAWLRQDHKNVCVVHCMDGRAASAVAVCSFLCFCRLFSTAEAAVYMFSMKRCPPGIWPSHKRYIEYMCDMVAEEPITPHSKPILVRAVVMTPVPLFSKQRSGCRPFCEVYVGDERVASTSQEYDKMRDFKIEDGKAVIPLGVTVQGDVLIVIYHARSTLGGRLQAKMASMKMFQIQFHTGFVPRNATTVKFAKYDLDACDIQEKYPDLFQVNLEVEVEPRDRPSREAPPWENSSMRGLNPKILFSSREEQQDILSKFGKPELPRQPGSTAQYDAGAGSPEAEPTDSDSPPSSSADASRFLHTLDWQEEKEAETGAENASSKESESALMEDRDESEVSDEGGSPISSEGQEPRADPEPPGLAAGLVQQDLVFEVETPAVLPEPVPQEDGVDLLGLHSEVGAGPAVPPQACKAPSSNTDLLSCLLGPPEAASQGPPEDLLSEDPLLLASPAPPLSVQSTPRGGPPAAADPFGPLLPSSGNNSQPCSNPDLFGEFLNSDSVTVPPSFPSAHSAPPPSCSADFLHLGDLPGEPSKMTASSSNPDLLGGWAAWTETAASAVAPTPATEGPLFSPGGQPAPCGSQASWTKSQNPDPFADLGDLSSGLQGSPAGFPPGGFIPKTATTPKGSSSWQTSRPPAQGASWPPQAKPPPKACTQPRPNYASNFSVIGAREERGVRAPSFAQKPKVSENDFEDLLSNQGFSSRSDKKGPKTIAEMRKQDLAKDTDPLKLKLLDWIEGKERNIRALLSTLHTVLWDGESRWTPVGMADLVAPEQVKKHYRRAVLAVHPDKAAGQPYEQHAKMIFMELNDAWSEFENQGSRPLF
Method: as §1

AurB = AurB (Homo sapiens, UniProt Q96GD4)
Method: as §1

Sequence of Erk2 (P28482 whole entry): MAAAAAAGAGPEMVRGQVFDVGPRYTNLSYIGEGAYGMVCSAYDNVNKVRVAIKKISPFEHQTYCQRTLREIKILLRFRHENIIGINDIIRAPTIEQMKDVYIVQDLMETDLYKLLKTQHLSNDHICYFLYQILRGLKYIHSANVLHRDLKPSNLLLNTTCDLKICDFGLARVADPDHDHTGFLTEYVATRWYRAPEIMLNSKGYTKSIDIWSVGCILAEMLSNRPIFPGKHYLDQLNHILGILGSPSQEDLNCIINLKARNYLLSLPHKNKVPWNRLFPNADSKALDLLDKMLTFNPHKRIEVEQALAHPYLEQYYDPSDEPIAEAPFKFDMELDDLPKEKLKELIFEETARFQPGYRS
Sequence of MLK3 (Q16584 whole entry): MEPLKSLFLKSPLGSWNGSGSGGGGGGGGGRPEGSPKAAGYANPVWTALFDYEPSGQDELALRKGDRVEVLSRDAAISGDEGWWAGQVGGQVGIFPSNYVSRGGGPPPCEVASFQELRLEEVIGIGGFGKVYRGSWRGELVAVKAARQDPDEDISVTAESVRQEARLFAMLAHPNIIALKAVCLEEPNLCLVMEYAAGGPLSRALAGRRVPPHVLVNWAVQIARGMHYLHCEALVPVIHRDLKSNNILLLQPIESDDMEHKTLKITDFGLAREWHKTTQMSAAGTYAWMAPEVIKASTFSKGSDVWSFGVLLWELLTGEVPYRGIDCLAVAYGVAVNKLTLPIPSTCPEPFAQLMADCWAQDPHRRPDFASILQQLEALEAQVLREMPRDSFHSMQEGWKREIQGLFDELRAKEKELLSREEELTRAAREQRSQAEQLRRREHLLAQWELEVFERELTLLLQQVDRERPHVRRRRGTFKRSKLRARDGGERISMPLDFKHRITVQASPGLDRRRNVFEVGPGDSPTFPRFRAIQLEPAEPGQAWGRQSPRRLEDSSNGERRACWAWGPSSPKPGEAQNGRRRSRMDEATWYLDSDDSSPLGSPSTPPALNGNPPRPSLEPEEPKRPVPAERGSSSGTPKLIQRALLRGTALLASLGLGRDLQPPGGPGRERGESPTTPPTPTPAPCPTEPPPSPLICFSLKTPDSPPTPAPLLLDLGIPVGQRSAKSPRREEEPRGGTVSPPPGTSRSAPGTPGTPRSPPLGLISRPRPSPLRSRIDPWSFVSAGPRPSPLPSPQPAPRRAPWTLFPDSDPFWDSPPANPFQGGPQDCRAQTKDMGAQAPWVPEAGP
Sequence of AurB (Q96GD4 whole entry): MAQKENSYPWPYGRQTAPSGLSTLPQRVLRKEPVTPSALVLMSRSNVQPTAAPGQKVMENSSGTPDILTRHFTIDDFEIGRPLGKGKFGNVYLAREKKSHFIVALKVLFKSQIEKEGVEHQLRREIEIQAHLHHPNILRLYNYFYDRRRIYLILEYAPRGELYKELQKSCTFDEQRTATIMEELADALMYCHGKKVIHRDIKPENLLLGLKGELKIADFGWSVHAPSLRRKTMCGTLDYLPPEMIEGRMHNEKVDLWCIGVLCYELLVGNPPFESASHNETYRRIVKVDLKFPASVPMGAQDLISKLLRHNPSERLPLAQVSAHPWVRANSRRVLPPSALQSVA
Sequence of CaMK2d (Q13557 whole entry): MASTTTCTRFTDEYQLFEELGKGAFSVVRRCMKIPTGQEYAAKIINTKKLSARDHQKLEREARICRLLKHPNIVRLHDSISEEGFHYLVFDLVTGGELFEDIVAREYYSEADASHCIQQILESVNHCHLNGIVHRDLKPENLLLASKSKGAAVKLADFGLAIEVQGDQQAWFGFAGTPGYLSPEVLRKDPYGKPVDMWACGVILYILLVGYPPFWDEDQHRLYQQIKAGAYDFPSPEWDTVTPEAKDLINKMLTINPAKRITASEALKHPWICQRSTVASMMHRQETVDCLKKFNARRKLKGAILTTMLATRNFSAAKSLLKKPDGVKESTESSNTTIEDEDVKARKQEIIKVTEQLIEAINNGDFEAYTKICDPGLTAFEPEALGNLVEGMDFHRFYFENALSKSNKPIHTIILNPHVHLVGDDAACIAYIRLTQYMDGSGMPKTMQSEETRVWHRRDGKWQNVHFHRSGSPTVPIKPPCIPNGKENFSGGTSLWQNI

inhibition at 10 µM (Erk2): 68.5% | Competition % (MLK3): 93.8% | inhibition at 10 µM (CaMK2d): 72.1% | inhibition at 10 µM (GAK): 93.6% | inhibition at 10 µM (AurB): 90.8%
SMILES: CS(=O)(=O)Nc1ccccc1Nc1nc(Nc2cccc(OCCN)c2)ncc1Cl [CZC31326, N-(2-(2-(3-(2-aminoethoxy)phenylamino)-5-chloropyrimidin-4-ylamino)phenyl)methanesulfonamide]
